In US20040077549A1, “Inhibitors of the E2F-1/cyclin interaction for cancer therapy” (priority 2000, published 2004):
Where two headings read alike, the source gives them in different places. Blank lines part the entries; values can stand above or below the molecule they belong to. Where a SMILES comes first, the peptide text is derived from it. Bridges are numbered along the chain shown (N, C = ends). Where no end group is shown, it is not given here. [ ]: non-standard residue; d: D form.

What was measured:
[1] = target: E2F-1/Cyclin A interaction (Homo sapiens, UniProt P20248); assay: E2F-1/Cyclin A/cdk2 ELISA; format: binding
Protocol: An ELISA was developed to identify antagonists of E2F-1/Cyclin A interaction. This method is based on interactions between three proteins, E2F-1, Cyclin A and cdk2 and is analyzed colorimetrically. This assay was used to determine IC50 values for various synthetic peptides that were used in biological experiments and for SAR studies.
This assay allows determination of IC50 values for various synthetic peptides that were used in biological experiments or for SAR studies.
Nunc Immulon II ELISA plates are coated overnight at 4° C. with 250 μL of […] anti-GST antibody (Pharmacia Biotech) in bicarbonate buffer. Following five washes with wash buffer consisting of 50 mM Tris (pH=7.5), 0.15 M NaCl, and 0.01% Tween-20 (TBST), non-specific sites were blocked for 2 hr at room temperature with 300 μL of assay buffer consisting of 50 mM HEPES (pH=7.5), 0.15 M NaCl, 0.1% Triton X-100, and 5% bovine serum albumin (BSA). Plates were then washed five times in TBST, aspirated dry, and treated with 100 μL of GST-E2F-1 in TBS (25 nM). GST-E2F-1 was incubated at RT for at least 1 hr with non-specific binding (NSB) control wells receiving assay buffer with no protein. Plates were washed five times in TBST and multiple concentrations of test compounds diluted in assay buffer were co-incubated with 5 nM Cyclin A/cdk2 diluted in assay buffer. The Cyclin A/cdk2 complex was freshly prepared by mixing a 1:1 ratio of the two proteins in TBS at 4° C. for 30 min prior to addition to the assay plate. Following incubation for 2 hr at RT, plates were washed five times in TBST, and 100 μL of a 1:500 dilution of a rabbit anti-cdk2 antibody (Santa Cruz) diluted in assay buffer and were added to all wells. Following incubation for at least 1 hr at RT or overnight at 4° C., the plates were washed five times in TBST and 100 μL of a 1:1000 dilution of a HRP-conjugated anti-rabbit IgG antibody (Pierce) were added to all wells. Following a half hour incubation at RT, the plates were washed five times in TBST, aspirated dry, and developed by the addition of 100 μL of a HRP substrate ABTS prepared in sodium citrate buffer (pH=4.2). After 10-15 min, absorbance is read using a microplate reader at 405 nm.

[2] = system: MDA-MB-435 cells; assay: Growth inhibition (MTS assay), MDA-MB-435; format: cell-based, Human; conditions: MDA-MB-435, 24 hr
Source text: (§1) Evaluation of Growth Inhibition.

[3] = system: A549 cells; assay: Growth inhibition (MTS assay), A549; format: cell-based, Human; conditions: A549, 24 hr
Source text: as §1

[4] = system: WI38/VA13 SV40 cells; conditions: read-out: IC50 growth inhibition; WI38/VA13 SV40, 24 hr, MTS
Protocol: (§4) Evaluation of Growth Inhibition. 3×10^3 cells/well were plated on a 96 well plate at 10% FCS and cultured overnight. The culture medium was discarded, and the cells were washed once with Opti-MEM. The cell monolayers were incubated at 37° C. with peptide solutions at various concentrations for 24 hr. The growth inhibition was evaluated using solutions composed of 3-(4,5-dimethylthiazol-2-yl)-5-(3-carboxymethoxyphenyl)-2-(4-sulfophenyl)-2H-tetrazolium; MTS (from Promega) and phenazine methosulfate; PMS (from Sigma).

[5] = system: MDA-MB-231 cells; conditions: read-out: IC50 growth inhibition; MDA-MB-231, 24 hr, MTS
Protocol: (§5) MDA-MB-435, U2OS, A549, MDA-MB-231 cells were maintained in DMEM supplemented with 10% FCS. SW480 and HCT-116 were grown in RPMI 1640 supplemented with 10% FCS.
as §4

[6] = system: U2OS cells; assay: Growth inhibition (MTS assay), U2OS; format: cell-based, Human; conditions: for IC50: 24 hr, MTS; for cell morphology: beginning at about 3 hr post-treatment; for inhibition as measured by the MTS assay: asynchronous culture of U2OS
Source text: as §1

[7] = system: MDA-MB-435 cells; assay: Uptake and intracellular compartmentalization (fluorescence microscopy), MDA-MB-435; format: cell-based, Human; conditions: MDA-MB-435, after 30 min of incubation
Protocol: (§2) Peptide Treatment and Fluorescence Microscopy. 4×10^4 cells/well were plated on a 48 well plate at 10% FCS and cultured overnight. […] For detection of fluorescein-labeled peptides, cells were rinsed once with PBS (pH=7.3) and visualized using a fluorescence microscope (Axiovert 135 at 320×).
(§3) Uptake and Intracellular Compartmentalization of Tat Peptides. The internalization of the Tat-mt peptide labeled with fluorescein maleimide on the cysteine residue was investigated. The labeled peptide was verified by mass spectrometry and purified by HPLC before use. […] We further repeated the experiments with incubation of the peptide at 30 and 100 μM for 24 hr in osteosarcoma U2OS cells. […] The peptide was tested under the same conditions after direct labeling with fluorescein maleimide. No variation in the amount and localization of the internalized peptide was observed as compared with the Tat-peptide.

[8] = system: U2OS cells; assay: Uptake and intracellular compartmentalization (fluorescence microscopy), U2OS; format: cell-based, Human; conditions: 30 and 100 μM, 24 hr
Protocol: as §2, §3

[9] = system: HeCat cells; conditions: read-out: IC50 growth inhibition, 24 hr, MTS
Protocol: as §4

[10] = system: SW480 cells; conditions: read-out: IC50 growth inhibition; SW480, 24 hr, MTS
Protocol: as §5, §4

[11] = system: Rat1 cells; conditions: read-out: IC50 growth inhibition; Rat1, 24 hr, MTS
Protocol: as §4

[12] = system: HCT-116 cells; conditions: read-out: IC50 growth inhibition; HCT-116, 24 hr, MTS
Protocol: as §5, §4

[13] = linear peptide, read-out: IC50 Linear
[14] = E2F-1/Cyclin A/cdk2 ELISA, read-out: IC50
[15] = cyclic peptides, read-out: ELISA IC50
[16] = cyclized between side-chain amino group of Lys* and carboxyl group of Gly*, read-out: IC50 Cyclic
[17] = original identified sequences (linear), read-out: IC50

Molecule: CC(=O)N[C@@H](CCCN=C(N)N)C(=O)N[C@@H](CCCCN)C(=O)N[C@@H](CC(C)C)C(=O)N[C@@H](Cc1ccccc1)C(=O)NCC(=O)O [Ac-Arg-Lys-*Leu-Phe-Gly* (Linear), Ac-Arg-Lys-*Leu-Phe-Gly*]
- IC50 [1, 13]: 30000 nM

Molecule: CC(C)C[C@@H]1NC(=O)[C@@H](NC(=O)[C@H](CCCNC(=N)N)NC(=O)[C@H](CCCCN)NC(=O)[C@H](C)NC(=O)[C@@H]2CCCN2C(=O)CNC(=O)[C@H](CCCNC(=N)N)NC(=O)[C@H](CCCNC(=N)N)NC(=O)[C@H](CCCNC(=N)N)NC(=O)[C@H](CCC(N)=O)NC(=O)[C@H](CCCNC(=N)N)NC(=O)[C@H](CCCNC(=N)N)NC(=O)[C@H](CCCCN)NC(=O)[C@H](CCCCN)NC(=O)[C@H](CCCNC(=N)N)NC(=O)CNC(=O)[C@@H](N)Cc2ccc(O)cc2)CCCCNC(=O)CNC(=O)[C@H](Cc2ccccc2)NC1=O [Tat-cyclic, YGRKKRRQRRRG PAKR(KLFG)] (H-YGRKKRRQRRRGPAKRKLFG; lactam 17-C)
- IC50 [2]: 6000 to 7000 nM
- IC50 [3]: 26000 to 46000 nM
- IC50 [1]: 100 to 1000 nM
- IC50 [4]: 6000 to 7000 nM
- IC50 [5]: 6000 to 7000 nM
- IC50 ([6]; U2OS): 6000 to 7000 nM
- cell morphology ([6]; U2OS): rounded morphology
- inhibition as measured by the MTS assay [6]: dose-dependent inhibition

Molecule: Ac-AKRKLFG [Ac-Ala-Lys-Arg-Lys-*Leu-Phe-Gly*]
- IC50 [1, 13]: 200 nM

Molecule: FluMalCXYGRKKRRQRRRG PVKARLDL [FITC-Tat-mt]
- intracellular localization [7]: mainly recovered from the nucleus with a nucleolar accumulation
- penetration to the nucleus [8]: 100%

Molecule: YGRKKRRQRRRG [Tat, reference compound]
- failed to cause any morphological changes and MTS reading up to ([6]; U2OS): > 300 μM

Molecule: YGRKKRRQRRRGPVKRRLDL [Tat-linear, YGRKKRRQRRRG PVKRRLDL]
- IC50 [2]: 48000 to 50000 nM
- IC50 [9]: > 100000 nM
- IC50 [1]: 100 to 1000 nM
- IC50 [10]: 26000 nM
- IC50 [11]: > 100000 nM
- IC50 [12]: 80000 nM
- IC50 ([6]; U2OS): 28000 to 40000 nM
- cell morphology ([6]; U2OS): rounded morphology
- inhibition as measured by the MTS assay [6]: dose-dependent inhibition

Further lines, results first:

- IC50 [1, 14]: 1 nM
- IC50 [1, 15]: 1 nM
- IC50 [1, 16]: 1 nM
Molecule: CC(C)C[C@@H]1NC(=O)[C@@H](NC(=O)[C@H](CCCNC(=N)N)NC(=O)[C@H](CCCCN)NC(=O)[C@H](C)NC(=O)[C@H]2CCCN2)CCCCNC(=O)CNC(=O)[C@H](Cc2ccccc2)NC1=O [compound 2, Pro-Ala-Lys-Arg-(Lys-Leu-Phe-Gly)] (H-[dP]AKRKLFG; lactam 5-C)

- IC50 [1, 15]: 10 nM
- IC50 [1, 16]: 10 nM
Molecule: CC(=O)N[C@@H](C)C(=O)N[C@@H](CCCCN)C(=O)N[C@@H](CCCNC(=N)N)C(=O)N[C@H]1CCCCNC(=O)CNC(=O)[C@H](Cc2ccccc2)NC(=O)[C@H](CC(C)C)NC1=O [compound 3, Ac-Ala-Lys-Arg-(Lys-Leu-Phe-Gly)] (Ac-AKRKLFG; lactam 4-C)

- IC50 [1, 14]: 20 nM
- IC50 [1, 15]: 20 nM
- IC50 [1, 16]: 20 nM
Molecule: CC(=O)N[C@@H](CCCCN)C(=O)N[C@@H](CCCNC(=N)N)C(=O)N[C@H]1CCCCNC(=O)CNC(=O)[C@H](Cc2ccccc2)NC(=O)[C@H](CC(C)C)NC1=O [compound 4, Ac-Lys-Arg-(Lys-Leu-Phe-Gly)] (Ac-KRKLFG; lactam 3-C)

- IC50 [1, 13]: 1000 nM
Molecule: Ac-KRKLFG [Ac-Lys-Arg-Lys-*Leu-Phe-Gly* (Linear), Ac-Lys-Arg-Lys-*Leu-Phe-Gly*]

- IC50 [1, 13]: 100 nM
- IC50 [1, 17]: 100 nM
Molecule: PAKRKLFG [Pro-Ala-Lys-Arg-Lys-Leu-Phe-GIy]

- IC50 [1, 17]: 200 nM
Molecule: SACRNLFG [reference compound]
